# Source: patent publication US20240197729A1, “ALK-5 Inhibitors and Uses Thereof” (Sumitomo Pharma Oncology, Inc., priority 2021, published 2024)
# “Also recorded” adds a separate entry of the source.
# How the values were obtained:
# [1] = tested on: p-SMAD2 (Ser465/Ser467); assay: Longitudinal PK/PD analysis of p-SMAD2 in A549 xenograft mouse model; assay type: in vivo, mice; settings: for percent p-SMAD2 levels compared to vehicle group: 50 mg/kg per oral gavage, normalized to GAPDH; for time of peak p-SMAD2 suppression post dosing / drug tumor and plasma exposure in vivo: single dose 50 mg/kg per oral gavage; for drug tumor and plasma exposure in vivo: A549 xenograft mice
# Method: Accordingly, a longitudinal, twenty-two-hour, one-dose study was performed using Compound 04 and the commercially available ALK5 inhibitor vactosertib in an A549 xenograft mouse model. In this study, p-SMAD2 (Ser465/Ser467) and a housekeeping gene (GAPDH) were measured at ten timepoints from zero (established using vehicle-treated animals) up to twenty-two hours post dose for a single drug dose of fifty milligrams per kilogram per subject (three subjects per dosing group).
# For this study, xenografts were prepared and implanted in mice as follows. At five weeks of age, female athymic nude mice (purchased from Charles River) were injected with approximately 2.1 million A549 cells (ATCC, CCL-185). Cells were harvested and resuspended in plain RPMI media (no phenol red added) and Matrigel (Corning 356237) at a one to one ratio, and two hundred-microliters of the cell suspension were injected into the right hind flank of each mouse. Tumors were measured every three days by caliper, and as tumors reached an average of seventy-eighty millimeters cubed, mice were randomized in groups of three subjects. Each of the test compounds (vactosertib, Compound 04) was resuspended in 1-methyl-2-pyrrolidinone (Sigma, 494496) (10%) plus 20% Solutol (Sigma 42966) in water (90%). The drug suspensions were sonicated for fifteen minutes to generate a fine particle suspension before being given to the test subjects. Subjects were dosed (per oral gavage) with the suspension. A vehicle control group with three mice was used to establish the baseline and timepoint zero of phospho-SMAD-2 in the tumor xenograft. The test compounds were administered to the respective subject groups at fifty milligrams per kilogram.
# Samples were obtained post administration of test compounds at 30 minutes, one hour, two hours, four hours, six hours, eight hours, twelve hours, sixteen hours and twenty-two hours. Tumors were harvested, snap frozen and stored at negative eighty degrees Celsius until further processing. Plasma was collected from all animals by collecting whole blood via cardiac puncture, followed by centrifugation in tubes containing EDTA (BD, microtainer tubes, 365974). A group of three mice receiving vehicle only served as the zero timepoint for both drug groups. The phospho SMAD-2 levels were determined using the Bio-Plex Pro™ Phospho-Smad2 (Ser465/Ser467) Set (BioRad 171V50019M). The phospho SMAD-2 levels were normalized to GAPDH (MILLIPLEX MAP GAPDH Total Magnetic Bead MAPmate™, Millipore 46-667MAG) levels from each sample. All analytes were analyzed in a multiplex fashion with the Bio-Plex Pro Cell Signaling Reagent Kit (BioRad 171304006M). Frozen tumor samples (fifteen to thirty milligrams) were lysed in 100 μl lysis buffer, processed in a bead mill tube, and centrifuged. The resulting lysate was used at 1:50 dilution for the assay according to the manufacturer's instructions. Bead suspension was analyzed using the Luminex system (MAGPIX).
# The study described in Example 8 was expanded to include Compound 01. Accordingly, using the same procedure for preparing test subjects and the ability of compounds tested to suppress TGF-beta signaling over time (as described in Example 8), a longitudinal, twenty-two-hour, one-dose study was performed using Compound 01, and the data were plotted alongside data obtained in Example 8 from Compound 04 and commercially available ALK5 inhibitor vactosertib, which were replotted in accordance with Example 10. For this expansion of the longitudinal study, p-SMAD2 (Ser465/Ser467) and housekeeping gene GAPDH were measured at ten timepoints from zero up to twenty-two hours post a single drug dose of fifty milligrams per kilogram per animal (three animals per group). A vehicle only treatment group of three mice was used to establish the baseline levels of p-SMAD2 in A549 xenograft tumor samples.
# As in Example 8, xenografts were prepared and implanted in mice as follows. […]
# [2] = tested on: p-STAT3 (Tyr 705); assay: A549 xenograft assay, p-STAT3; assay type: in vivo, mice; settings: tumors 4 h after dosing
# Description: To test compounds for inhibition of in vivo on-target activity (ALK5/TGF-bR1 inhibition) as well as potential Janus Kinase (JAK) signaling off-target activity, the A549 murine xenograft model was utilized. An ALK5 inhibitor (e.g., vactosertib) is expected to reduce the amount of the TGF-beta signaling molecule phospho-SMAD-2 (pSMAD2) in the A549 xenograft cells. The TGF-beta-mediated phosphorylation of SMAD2 in A549 cells takes place at amino acid residue four hundred and sixty-five and four hundred and sixty-seven (both are serine residues). A JAK inhibitor (e.g., ruxolitinib) is expected to reduce the phosphorylation of signal transducer and activator of transcription (STAT) proteins such as STAT3 at amino acid residue 705 (tyrosine).
# At eight weeks of age, female athymic nude mice (purchased from Charles River) were injected with approximately 3.5 million A549 cells (ATCC, CCL-185). Specifically, cells were harvested and resuspended in plain RPMI media (no phenol red added) and Matrigel (Corning 356237) at a one to one ratio, and two hundred-microliters were injected into the right hind flank of each mouse. Tumors were measured every three days by caliper and as tumors reached an average of seventy-eighty millimeters cubed, mice were randomized in groups of three. All compounds were resuspended in 1-methyl-2-pyrrolidinone (Sigma 494496) (10%) plus 20% Solutol (Sigma 42966) in water (90%). Vactosertib and ruxolitinib were included as controls as ALK5 signaling inhibitor and JAK signaling inhibitor, respectively. Both controls were given at seventy-five milligrams per kilogram to three mice. The drug suspensions were sonicated for fifteen minutes to generate a fine particle suspension before being given to the mice. Mice were dosed (per oral gavage) with drug at one hundred, seventy-five, fifty, or ten milligrams per kilogram, with three mice per group. A vehicle control group with three mice was used to establish the baseline level of phospho-SMAD-2 in the tumor xenograft.
# Four hours after drug administration, tumors were harvested, snap frozen and stored at negative eighty degrees Celsius until further processing. The phospho-SMAD-2 levels were determined using the Bio-Plex Pro™ Phospho-Smad2 (Ser465/Ser467) Set (BioRad 171V50019M). The phospho STAT3 levels were determined using the bead/antibody set from the MILLIPLEXMAP STAT Cell Signaling Magnetic Bead 5-Plex Kit (Millipore 48-610MAG). Both phospho SMAD-2 levels and phospho STAT3 levels were normalized to ß-Tubulin (MILLIPLEX MAP ß-Tubulin Total Magnetic Bead MAPmate™, Millipore 46-713MAG) or GAPDH (MILLIPLEX MAP GAPDH Total Magnetic Bead MAPmate™, Millipore 46-667MAG) levels from each sample. All analytes were analyzed in a multiplex fashion with the Bio-Plex Pro Cell Signaling Reagent Kit (BioRad 171304006M). Briefly, frozen tumor (fifteen to thirty milligrams) was lysed in 100 μl lysis buffer, processed in bead mill tube, and centrifuged. The resulting lysate was used at 1:50 dilution for the assay according to the manufacturer's instructions. Bead suspension was analyzed using the Luminex system (MAGPIX).
SMILES,percent p-SMAD2 levels compared to vehicle group ([1]; 0.5 h post dosing) [%],percent p-SMAD2 levels compared to vehicle group ([1]; 1 h post dosing) [%],percent p-SMAD2 levels compared to vehicle group ([1]; 2 h post dosing) [%],percent p-SMAD2 levels compared to vehicle group ([1]; 4 h post dosing) [%],percent p-SMAD2 levels compared to vehicle group ([1]; 6 h post dosing) [%],percent p-SMAD2 levels compared to vehicle group ([1]; 8 h post dosing) [%],percent p-SMAD2 levels compared to vehicle group ([1]; 12 h post dosing) [%],percent p-SMAD2 levels compared to vehicle group ([1]; 16 h post dosing) [%],percent p-SMAD2 levels compared to vehicle group ([1]; 22 h post dosing) [%],time of peak p-SMAD2 suppression post dosing [1],drug tumor and plasma exposure in vivo [1],Average % p-STAT3 (Tyr 705) of vehicle ([2]; 10 mg/kg per oral gavage) [%],Average % p-STAT3 (Tyr 705) of vehicle ([2]; 50 mg/kg per oral gavage) [%],Average % p-STAT3 (Tyr 705) of vehicle ([2]; 75 mg/kg per oral gavage) [%],Average % p-STAT3 (Tyr 705) of vehicle ([2]; 100 mg/kg per oral gavage) [%],drug tumor and plasma exposure in vivo ([1]; 50 mg/kg),"drug tumor and plasma exposure in vivo ([1]; listed as compound 04, 50 mg/kg)"
"Cc1nn(CC(F)(F)F)cc1Nc1cc(Nc2cnnc3c(C)cccc23)ccn1 [Compound 01, N2-[3-methyl-1-(2,2,2-trifluoroethyl)-1H-pyrazol-4-yl]-N4-(8-methylcinnolin-4-yl)pyridine-2,4-diamine]",57,37,24,30,59,76,89.2,82.1,86.5,2 h,longer drug tumor and plasma exposure in vivo,92,70,66,76,,
"Clc1cccc2c(Nc3ccnc(Nc4cccc(N5CCOCC5)c4)c3)cnnc12 [Compound 04, N4-(8-chlorocinnolin-4-yl)-N2-[3-(morpholin-4-yl)phenyl]pyridine-2,4-diamine]",55,24,,14,22,57,95.0,81.9,91.4,two,,88,73,59,97,longer drug tumor and plasma exposure in vivo than vactosertib,longer drug tumor and plasma exposure in vivo
"Cc1cccc2c(Nc3ccnc(Nc4ccc(N5CCOCC5)cc4)c3)cnnc12 [Compound 05, N4-(8-methylcinnolin-4-yl)-N2-[4-(morpholin-4-yl)phenyl]pyridine-2,4-diamine]",,,,,,,,,,,,107,85,77,93,,
"Cc1cccc(-c2[nH]c(CNc3ccccc3F)nc2-c2ccc3ncnn3c2)n1 [Vactosertib, vactosertib, reference compound]",53,14,21,32,67,65,89.1,74.6,101.1,,,,,63,,quickly cleared from the system; also recorded: quickly cleared from the mice,
